Data published in patent US6596315B1, “Method of producing drug particles” (AstraZeneca AB, priority 1998, dated 2003).

Experiment: HPLC determination of degradation products in particles after SEDS processing
Format: physicochemical
Protocol: High-Perfomance Liquid Chromatography (HPLC)
Identification and quantification of degradation products were determined using HPLC technique.
The amount of degradation products was calculated from the chromatograms as area-%. Thus, 0.2% area-procent means that the amount of degradation products was 0.2% of the initial weight of the substance.
Particles were prepared in a modified SEDS equipment (Bradford Particle Design Limited, UK) from a solution, containing substance(s).
The solution and the antisolvent were introduced into a coaxial nozzle, which was located inside a pressure vessel. Under controlled pressure and temperature conditions, the antisolvent extracts the solvent from the solution droplets. The concentration of the solute in the droplets is thereby increased, leading to rapid particle formation. The particles were collected in a vessel, while the antisolvent and the extracted solvent emerged through a back pressure regulator.
The nozzle used was a two component nozzle, with an opening of 0.2 mm in diameter. In the two component nozzle the supercritical fluid passes through the inner passage, while the solution passes through the outer passage.

In order of rising Degradation products:
1. COc1ccc2[n-]c([S+]([O-])Cc3ncc(C)c(OC)c3C)nc2c1.COc1ccc2[n-]c([S+]([O-])Cc3ncc(C)c(OC)c3C)nc2c1.[Mg+2] (stereo not shown) [Experiment 1-4b, Omeprazole magnesium]  0.1 a %
2. COc1ccc2[n-]c([S+]([O-])Cc3ncc(C)c(OC)c3C)nc2c1.COc1ccc2[n-]c([S+]([O-])Cc3ncc(C)c(OC)c3C)nc2c1.[Mg+2] (stereo not shown) [Experiment 1-3b, Omeprazole magnesium]  0.2 a %
3. COc1ccc2[n-]c([S+]([O-])Cc3ncc(C)c(OC)c3C)nc2c1.COc1ccc2[n-]c([S+]([O-])Cc3ncc(C)c(OC)c3C)nc2c1.[Mg+2] (stereo not shown) [Experiment 1-1b, Omeprazole magnesium]  0.2 a %
4. COc1ccc2[n-]c([S+]([O-])Cc3ncc(C)c(OC)c3C)nc2c1.COc1ccc2[n-]c([S+]([O-])Cc3ncc(C)c(OC)c3C)nc2c1.[Mg+2] (stereo not shown) [Experiment 1-2b, Omeprazole magnesium]  0.2 a %
5. COc1ccc2[n-]c([S@@+]([O-])Cc3ncc(C)c(OC)c3C)nc2c1.COc1ccc2[n-]c([S@@+]([O-])Cc3ncc(C)c(OC)c3C)nc2c1.[Mg+2] [Experiment 2-1b, (S)-omeprazole magnesium]  0.3 a %
6. COc1ccc2[n-]c([S+]([O-])Cc3ncc(C)c(OC)c3C)nc2c1.COc1ccc2[n-]c([S+]([O-])Cc3ncc(C)c(OC)c3C)nc2c1.[Mg+2] (stereo not shown) [Experiment 1-3a, Omeprazole magnesium]  0.4 a %
7. COc1ccc2[n-]c([S+]([O-])Cc3ncc(C)c(OC)c3C)nc2c1.COc1ccc2[n-]c([S+]([O-])Cc3ncc(C)c(OC)c3C)nc2c1.[Mg+2] (stereo not shown) [Experiment 1-1a, Omeprazole magnesium]  0.5 a %
8. COc1ccc2[n-]c([S@@+]([O-])Cc3ncc(C)c(OC)c3C)nc2c1.COc1ccc2[n-]c([S@@+]([O-])Cc3ncc(C)c(OC)c3C)nc2c1.[Mg+2] [Experiment 2-1a, (S)-omeprazole magnesium]  2.1 a %

In order of falling “degradation products (HPLC)” value:
1. COc1ccc2[n-]c([S@@+]([O-])Cc3ncc(C)c(OC)c3C)nc2c1.COc1ccc2[n-]c([S@@+]([O-])Cc3ncc(C)c(OC)c3C)nc2c1.[Mg+2] [Experiment 2-1a, (S)-omeprazole magnesium]  2.1 area %
2. COc1ccc2[n-]c([S+]([O-])Cc3ncc(C)c(OC)c3C)nc2c1.COc1ccc2[n-]c([S+]([O-])Cc3ncc(C)c(OC)c3C)nc2c1.[Mg+2] (stereo not shown) [Experiment 1-1a, Omeprazole magnesium]  0.5 area %
3. COc1ccc2[n-]c([S+]([O-])Cc3ncc(C)c(OC)c3C)nc2c1.COc1ccc2[n-]c([S+]([O-])Cc3ncc(C)c(OC)c3C)nc2c1.[Mg+2] (stereo not shown) [Experiment 1-3a, Omeprazole magnesium]  0.4 area %
4. COc1ccc2[n-]c([S@@+]([O-])Cc3ncc(C)c(OC)c3C)nc2c1.COc1ccc2[n-]c([S@@+]([O-])Cc3ncc(C)c(OC)c3C)nc2c1.[Mg+2] [Experiment 2-1b, (S)-omeprazole magnesium]  0.3 area %
5. COc1ccc2[n-]c([S+]([O-])Cc3ncc(C)c(OC)c3C)nc2c1.COc1ccc2[n-]c([S+]([O-])Cc3ncc(C)c(OC)c3C)nc2c1.[Mg+2] (stereo not shown) [Experiment 1-3b, Omeprazole magnesium]  0.2 area %
6. COc1ccc2[n-]c([S+]([O-])Cc3ncc(C)c(OC)c3C)nc2c1.COc1ccc2[n-]c([S+]([O-])Cc3ncc(C)c(OC)c3C)nc2c1.[Mg+2] (stereo not shown) [Experiment 1-1b, Omeprazole magnesium]  0.2 area %
7. COc1ccc2[n-]c([S+]([O-])Cc3ncc(C)c(OC)c3C)nc2c1.COc1ccc2[n-]c([S+]([O-])Cc3ncc(C)c(OC)c3C)nc2c1.[Mg+2] (stereo not shown) [Experiment 1-2b, Omeprazole magnesium]  0.2 area %
8. COc1ccc2[n-]c([S+]([O-])Cc3ncc(C)c(OC)c3C)nc2c1.COc1ccc2[n-]c([S+]([O-])Cc3ncc(C)c(OC)c3C)nc2c1.[Mg+2] (stereo not shown) [Experiment 1-4b, Omeprazole magnesium]  0.1 area %
